Measurements as given in ChEMBL document CHEMBL1142918, “Carbonic anhydrase and matrix metalloproteinase inhibitors. Inhibition of human tumor-associated isozymes IX and cytosolic isozyme I and II with sulfonylated hydroxamates” (Bioorg Med Chem, 2007).

Tests used:
Carbonic anhydrase 2 = Carbonic anhydrase 2 (Homo sapiens, UniProt P00918)
Description: Inhibition of human recombinant carbonic anhydrase 2 by CO2 hydration method

Carbonic anhydrase 9 = Carbonic anhydrase 9 (Homo sapiens, UniProt Q16790)
Description: Inhibition of human recombinant carbonic anhydrase 9 by CO2 hydration method

Carbonic anhydrase 1 = Carbonic anhydrase 1 (Homo sapiens, UniProt P00915)
Description: Inhibition of human recombinant carbonic anhydrase 1 by CO2 hydration method

[1] = target: Matrix metalloproteinase-9 (Homo sapiens, UniProt P14780)
Sequence of Matrix metalloproteinase-9 (P14780 whole entry): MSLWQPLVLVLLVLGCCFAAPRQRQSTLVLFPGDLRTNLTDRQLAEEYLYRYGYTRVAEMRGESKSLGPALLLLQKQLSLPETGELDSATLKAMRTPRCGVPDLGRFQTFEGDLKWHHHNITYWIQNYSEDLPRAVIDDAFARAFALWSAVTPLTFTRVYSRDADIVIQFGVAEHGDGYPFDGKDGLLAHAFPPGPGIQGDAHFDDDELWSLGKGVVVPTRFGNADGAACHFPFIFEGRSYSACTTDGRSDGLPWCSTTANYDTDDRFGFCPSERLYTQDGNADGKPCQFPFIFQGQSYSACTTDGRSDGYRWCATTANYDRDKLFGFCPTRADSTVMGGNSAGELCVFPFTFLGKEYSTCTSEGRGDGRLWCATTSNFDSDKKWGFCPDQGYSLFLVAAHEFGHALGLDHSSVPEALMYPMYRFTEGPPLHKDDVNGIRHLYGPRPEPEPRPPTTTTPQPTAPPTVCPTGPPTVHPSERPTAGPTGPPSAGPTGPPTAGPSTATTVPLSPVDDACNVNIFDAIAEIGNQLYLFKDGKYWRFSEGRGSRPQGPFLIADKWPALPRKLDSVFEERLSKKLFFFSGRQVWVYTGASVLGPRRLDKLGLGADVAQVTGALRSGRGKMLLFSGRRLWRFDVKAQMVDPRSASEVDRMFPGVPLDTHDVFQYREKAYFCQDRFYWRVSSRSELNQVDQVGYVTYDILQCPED
Description: Inhibition of human recombinant MMP9 expressed in mouse myeloma cells

[2] = target: 72 kDa type IV collagenase (Homo sapiens, UniProt P08253)
Sequence of 72 kDa type IV collagenase (P08253 whole entry): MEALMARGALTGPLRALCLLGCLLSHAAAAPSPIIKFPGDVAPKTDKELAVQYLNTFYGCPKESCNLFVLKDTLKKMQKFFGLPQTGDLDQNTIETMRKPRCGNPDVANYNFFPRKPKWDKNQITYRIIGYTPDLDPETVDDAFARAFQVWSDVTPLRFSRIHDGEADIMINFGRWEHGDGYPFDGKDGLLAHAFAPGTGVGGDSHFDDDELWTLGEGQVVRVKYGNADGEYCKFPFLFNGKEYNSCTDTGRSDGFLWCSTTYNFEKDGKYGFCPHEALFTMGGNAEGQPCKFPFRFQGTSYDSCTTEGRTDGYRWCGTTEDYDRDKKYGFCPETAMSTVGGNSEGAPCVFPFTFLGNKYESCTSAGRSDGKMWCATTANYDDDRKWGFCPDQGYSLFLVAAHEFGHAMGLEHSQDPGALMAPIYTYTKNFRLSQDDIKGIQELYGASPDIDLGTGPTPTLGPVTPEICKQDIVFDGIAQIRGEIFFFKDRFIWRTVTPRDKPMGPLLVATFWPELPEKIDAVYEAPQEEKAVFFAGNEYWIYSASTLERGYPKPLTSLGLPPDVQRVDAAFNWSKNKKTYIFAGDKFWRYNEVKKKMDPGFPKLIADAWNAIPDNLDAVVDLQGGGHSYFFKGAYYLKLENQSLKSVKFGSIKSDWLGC
Description: Inhibition of human recombinant MMP2 expressed in mouse myeloma cells

Sequence of Carbonic anhydrase 1 (P00915 whole entry): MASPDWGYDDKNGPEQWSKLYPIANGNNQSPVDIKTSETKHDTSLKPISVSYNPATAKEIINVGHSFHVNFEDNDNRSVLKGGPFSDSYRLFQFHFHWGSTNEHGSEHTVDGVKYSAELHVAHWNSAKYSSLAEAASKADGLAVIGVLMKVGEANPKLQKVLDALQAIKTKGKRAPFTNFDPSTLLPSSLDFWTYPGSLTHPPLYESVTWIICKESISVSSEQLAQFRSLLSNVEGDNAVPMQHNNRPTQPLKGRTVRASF

Ki (Carbonic anhydrase 2) [µM] | Ki (Carbonic anhydrase 9) [µM] | Ki (Carbonic anhydrase 1) [µM] | IC50 [1] [µM] | IC50 [2] [µM] | SMILES
94 | 6.7 | 490 | 256 | 94 | O=C(CNOCc1ccccc1)NO
0.091 | 9.5 | 4.1 | 3.4 | 4.9 | COc1ccc(S(=O)(=O)N(CC(=O)NO)OC(C)C)cc1
0.097 | 7.4 | 0.89 | 33 | 30 | CCCCCCCCCCCCCCON(CC(=O)NO)S(=O)(=O)c1ccc(OC)cc1
4.8 | 8.8 | 10 | 261 | 137 | O=C(CNOCc1ccc(Cl)cc1)NO
4.7 | 9.2 | 9.8 | 141 | 68 | CC(NOCc1ccc(Cl)cc1)C(=O)NO (stereo not drawn)
7.8 | 7.6 | 520 | 81.5 | 33.7 | CCCCC(NOCc1ccccc1)C(=O)NO (stereo not drawn)
267 | 7.1 | 435 | 352 | 151 | CCC(C)C(NOCc1ccccc1)C(=O)NO (stereo not drawn)
4.2 | 9.3 | 156 | 0.33 | 1.5 | COc1ccc(S(=O)(=O)N(CC(=O)NO)OCc2ccc(Cl)cc2)cc1
8.7 | 9 | 8.91 | 2.2 | 9.6 | CCON(CC(=O)NO)S(=O)(=O)c1ccc(OC)cc1
6.1 | 6.9 | 10.2 | 125 | 81.8 | CCCCC(NOCc1ccc(Cl)cc1)C(=O)NO (stereo not drawn)
9.6 | 9.2 | 9.7 | 0.286 | 0.73 | CCC(C)ON(C(C(=O)NO)C(C)C)S(=O)(=O)c1ccc(OC)cc1 (stereo not drawn)
0.094 | 9.3 | 9 | 0.37 | 0.66 | COc1ccc(S(=O)(=O)N(OC(C)C)C(C(=O)NO)C(C)C)cc1 (stereo not drawn)
8.6 | 7.8 | 281 |  |  | COc1ccc(S(=O)(=O)N(Cc2cccnc2)[C@@H](C(=O)NO)C(C)C)cc1 [CGS-27023A]

SMILES | Ki (Carbonic anhydrase 2) [µM] | Ki (Carbonic anhydrase 9) [µM] | Ki (Carbonic anhydrase 1) [µM] | IC50 [1] [µM] | IC50 [2] [µM]
COc1ccc(S(=O)(=O)N(CC(=O)NO)OCc2ccccc2)cc1 | 0.096 | 7.5 | 0.88 | 0.87 | 1.06
COc1ccc(S(=O)(=O)N(CC(=O)NO)OC2C3CC4CC(C3)CC2C4)cc1 (stereo not drawn) | 0.096 | 7.8 | 0.9 | 2 | 1.98
COc1ccc(S(=O)(=O)N(CC(=O)NO)OCc2ccc(OCc3ccccc3)cc2)cc1 | 0.095 | 8.7 | 5.9 | 1.83 | 2.1
